Data as given in article PMC8027256, “Epigallocathechin-O-3-Gallate Inhibits Trypanothione Reductase of Leishmania infantum, Causing Alterations in Redox Balance and Leading to Parasite Death” (Frontiers in Cellular and Infection Microbiology, 2021).

Target: T1, trypanothione reductase (TR; LiTR) (Leishmania infantum, UniProt A4HSF7)
T1 construct: gene TRYR; Full-length LiTR with carboxy-terminal six-histidine tag (LiTR.6His), expressed in E. coli
Test: DTNB-coupled trypanothione reductase assay with purified recombinant enzyme; Lineweaver-Burk and Dixon plot analysis (IC50 […] also reported)
Type: biochemical

T1 sequence (A4HSF7 1-491): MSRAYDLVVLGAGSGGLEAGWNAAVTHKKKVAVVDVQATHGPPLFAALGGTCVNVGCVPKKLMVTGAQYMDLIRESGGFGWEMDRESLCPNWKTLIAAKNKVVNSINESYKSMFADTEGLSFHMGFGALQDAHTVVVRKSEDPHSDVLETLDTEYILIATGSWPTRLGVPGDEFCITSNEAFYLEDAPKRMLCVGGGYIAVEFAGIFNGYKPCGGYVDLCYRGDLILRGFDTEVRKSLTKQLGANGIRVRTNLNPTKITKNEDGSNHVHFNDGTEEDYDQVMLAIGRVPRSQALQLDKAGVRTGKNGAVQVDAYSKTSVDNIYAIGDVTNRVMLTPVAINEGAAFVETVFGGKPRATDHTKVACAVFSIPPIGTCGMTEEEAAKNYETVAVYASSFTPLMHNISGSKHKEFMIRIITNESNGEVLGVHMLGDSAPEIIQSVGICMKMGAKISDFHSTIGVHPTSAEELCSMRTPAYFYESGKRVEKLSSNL

Q: Which Ki does the source give for O=C(O[C@@H]1Cc2c(O)cc(O)cc2O[C@@H]1c1cc(O)c(O)c(O)c1)c1cc(O)c(O)c(O)c1 [(-)-Epigallocatechin 3-O-gallate] here?
A: 294 ± 66.3 µM
